{"source": "paper PMC7587356", "about": "“High-Throughput Screening for Inhibitors of the SARS-CoV-2 Protease Using a FRET-Biosensor” (Molecules, 2020)", "target": "SARS-CoV-2 3CLpro (Severe acute respiratory syndrome coronavirus 2, UniProt P0DTD1)", "experiment": "biochemical", "type": "biochemical", "design": "Replicate_1 / Replicate_2 / mean / mean (LOPAC_screen_w_protease): unit not given here", "settings": "for inhibition at 5 µM: 4 h", "key": {"[1]": {"settings": "sheet LOPAC_screen_w_protease, LOPAC1280 primary screen at 5 µM, with protease, mean of the two replicates, read-out: mean"}, "[2]": {"settings": "sheet LOPAC_screen_w_protease, LOPAC1280 primary screen at 5 µM, with protease, replicate 1, read-out: Replicate_1"}, "[3]": {"settings": "sheet LOPAC_screen_w_protease, LOPAC1280 primary screen at 5 µM, with protease, replicate 2, read-out: Replicate_2"}, "[4]": {"settings": "sheet LOPAC_screen_w_protease, LOPAC1280 primary screen with protease, 5 µM compound, mean of the two replicates"}, "[5]": {"settings": "sheet LOPAC_screen_w_protease, LOPAC1280 primary screen with protease, 5 µM compound, replicate 1"}, "[6]": {"settings": "sheet LOPAC_screen_w_protease, LOPAC1280 primary screen with protease, 5 µM compound, replicate 2"}, "[7]": {"settings": "sheet LOPAC_screen_w_protease, primary screen with protease, 5 µM, mean of two replicates, read-out: mean"}, "[8]": {"settings": "sheet LOPAC_screen_w_protease, primary screen with protease, 5 µM, replicate 1, read-out: Replicate_1"}, "[9]": {"settings": "sheet LOPAC_screen_w_protease, primary screen with protease, 5 µM, replicate 2, read-out: Replicate_2"}, "[10]": {"settings": "LOPAC1280 primary screen with protease, 5 µM compound, mean of two replicates"}, "[11]": {"settings": "LOPAC1280 primary screen with protease, 5 µM compound, replicate 1"}, "[12]": {"settings": "LOPAC1280 primary screen with protease, 5 µM compound, replicate 2"}, "[13]": {"settings": "sheet LOPAC_screen_w_protease, LOPAC1280 primary screen with protease, 5 µM compound, mean of the two replicates, read-out: mean"}, "[14]": {"settings": "sheet LOPAC_screen_w_protease, LOPAC1280 primary screen with protease, 5 µM compound, replicate 1, read-out: Replicate_1"}, "[15]": {"settings": "sheet LOPAC_screen_w_protease, LOPAC1280 primary screen with protease, 5 µM compound, replicate 2, read-out: Replicate_2"}}, "note": "Structures can show the parent of a compound that is named as a salt. Where two headings read alike, the source gives them in different places."}
{"smiles": "N[C@@H](Cc1c[nH]c2ccccc12)C(=O)O", "note": "[L-Tryptophan]", "values": [{"measurement": "inhibition at 5 µM", "setting": "[1]", "value": 0.58, "unit": "%"}, {"measurement": "inhibition at 5 µM", "setting": "[2]", "value": 2.12, "unit": "%"}, {"measurement": "inhibition at 5 µM", "setting": "[3]", "value": -0.955, "unit": "%"}]}
{"smiles": "C=CC[C@H](N)C(=O)O", "note": "[L-allylglycine]", "values": [{"measurement": "mean", "setting": "sheet LOPAC_screen_w_protease, primary screen with protease, 5 µM, mean of two replicates", "value": 0.3305}, {"measurement": "Replicate_1", "setting": "sheet LOPAC_screen_w_protease, primary screen with protease, 5 µM, replicate 1", "value": -0.7105}, {"measurement": "Replicate_2", "setting": "sheet LOPAC_screen_w_protease, primary screen with protease, 5 µM, replicate 2", "value": 1.372}]}
{"smiles": "C[C@](N)(Cc1ccc(O)c(O)c1)C(=O)O", "note": "[L-alpha-Methyl DOPA]", "values": [{"measurement": "mean (LOPAC screen with protease)", "setting": "sheet LOPAC_screen_w_protease, primary screen at 5 µM, mean of two replicates", "value": 7.163}, {"measurement": "Replicate_1 (LOPAC screen with protease)", "setting": "sheet LOPAC_screen_w_protease, primary screen at 5 µM, replicate 1", "value": 6.315}, {"measurement": "Replicate_2 (LOPAC screen with protease)", "setting": "sheet LOPAC_screen_w_protease, primary screen at 5 µM, replicate 2", "value": 8.01}]}
{"smiles": "C[C@](N)(Cc1ccc(O)cc1)C(=O)O", "note": "[L-alpha-Methyl-p-tyrosine]", "values": [{"measurement": "mean", "setting": "[4]", "value": 4.979}, {"measurement": "Replicate_1", "setting": "[5]", "value": 5.136}, {"measurement": "Replicate_2", "setting": "[6]", "value": 4.822}]}
{"smiles": "O=C(O)[C@@H]1CCN1", "note": "[L-azetidine-2-carboxylic acid]", "values": [{"measurement": "inhibition at 5 µM", "setting": "[7]", "value": -0.00926, "unit": "%"}, {"measurement": "inhibition at 5 µM", "setting": "[8]", "value": -0.0704, "unit": "%"}, {"measurement": "inhibition at 5 µM", "setting": "[9]", "value": 0.0519, "unit": "%"}]}
{"smiles": "CN1CCc2ccccc2Cc2[nH]c3ccccc3c2CC1", "note": "[LE 300]", "values": [{"measurement": "Replicate_1", "value": 0.4919}, {"measurement": "Replicate_2", "value": 1.5197}, {"measurement": "mean", "value": 1.0058}]}
{"smiles": "C/C(O)=C(\\C#N)C(=O)Nc1cc(Br)ccc1Br", "note": "[LFM-A13]", "values": [{"measurement": "mean (LOPAC_screen_w_protease)", "setting": "[10]", "value": 1.507}, {"measurement": "Replicate_1 (LOPAC_screen_w_protease)", "setting": "[11]", "value": -0.001982}, {"measurement": "Replicate_2 (LOPAC_screen_w_protease)", "setting": "[12]", "value": 3.017}]}
{"smiles": "CC(O)C(C)OC(=O)[C@@H]1C[C@@H]2c3cccc4c3c(cn4C(C)C)C[C@H]2N(C)C1.O=C(O)/C=C\\C(=O)O", "note": "(stereo partly drawn) [LY-53,857 maleate]", "values": [{"measurement": "mean", "setting": "sheet LOPAC_screen_w_protease, primary screen of LOPAC1280 at 5 µM with protease, mean of the two replicates", "value": 3.324}, {"measurement": "Replicate_1", "setting": "sheet LOPAC_screen_w_protease, primary screen of LOPAC1280 at 5 µM with protease, replicate 1", "value": 1.754}, {"measurement": "Replicate_2", "setting": "sheet LOPAC_screen_w_protease, primary screen of LOPAC1280 at 5 µM with protease, replicate 2", "value": 4.894}]}
{"smiles": "CN1C2CCC1CC(NC(=O)c1nn(C)c3ccccc13)C2.O=C(O)/C=C\\C(=O)O", "note": "(stereo not drawn) [LY-278,584 maleate]", "values": [{"measurement": "mean", "setting": "[4]", "value": 4.776}, {"measurement": "Replicate_1", "setting": "[5]", "value": 3.942}, {"measurement": "Replicate_2", "setting": "[6]", "value": 5.61}]}
{"smiles": "Cl.O=c1cc(N2CCOCC2)oc2c(-c3ccccc3)cccc12", "note": "[LY-294,002 hydrochloride]", "values": [{"measurement": "mean", "setting": "[4]", "value": 5.665}, {"measurement": "Replicate_1", "setting": "[5]", "value": 6.484}, {"measurement": "Replicate_2", "setting": "[6]", "value": 4.845}]}
{"smiles": "CC1(C)C(=O)N(CCN2CCC(C(=O)c3ccc(F)cc3)CC2)c2ccccc21.Cl", "note": "[LY-310,762 hydrochloride]", "values": [{"measurement": "mean (LOPAC_screen_w_protease)", "setting": "[10]", "value": 1.717}, {"measurement": "Replicate_1 (LOPAC_screen_w_protease)", "setting": "[11]", "value": 1.617}, {"measurement": "Replicate_2 (LOPAC_screen_w_protease)", "setting": "[12]", "value": 1.816}]}
{"smiles": "O=S1(=O)N(CCN2CC=C(c3c[nH]c4cc(F)ccc34)CC2)c2cccc3c2N1CCC3", "note": "[LY-367,265]", "values": [{"measurement": "mean", "setting": "sheet LOPAC_screen_w_protease, primary screen with protease, mean of two replicates", "value": 2.318}, {"measurement": "Replicate_1", "setting": "sheet LOPAC_screen_w_protease, primary screen with protease, replicate 1", "value": 0.8121}, {"measurement": "Replicate_2", "setting": "sheet LOPAC_screen_w_protease, primary screen with protease, replicate 2", "value": 3.823}]}
{"smiles": "Nc1nnc(-c2cccc(Cl)c2Cl)c(N)n1", "note": "[Lamotrigine]", "values": [{"measurement": "inhibition at 5 µM", "setting": "LOPAC1280 primary screen with protease, 5 µM compound, replicate 1, read-out: Replicate_1 (LOPAC_screen_w_protease)", "value": 1.42, "unit": "%"}, {"measurement": "inhibition at 5 µM", "setting": "LOPAC1280 primary screen with protease, 5 µM compound, replicate 2, read-out: Replicate_2 (LOPAC_screen_w_protease)", "value": 1.78, "unit": "%"}, {"measurement": "mean (LOPAC_screen_w_protease)", "setting": "[10]", "value": 1.603}]}
{"smiles": "Cc1oncc1C(=O)Nc1ccc(C(F)(F)F)cc1", "note": "[Leflunomide]", "values": [{"measurement": "inhibition at 5 µM", "setting": "sheet LOPAC_screen_w_protease, LOPAC1280 at 5 µM, mean of two replicates, read-out: mean", "value": 1.27, "unit": "%"}, {"measurement": "inhibition at 5 µM", "setting": "sheet LOPAC_screen_w_protease, LOPAC1280 at 5 µM, replicate 1, read-out: Replicate_1", "value": 0.0888, "unit": "%"}, {"measurement": "inhibition at 5 µM", "setting": "sheet LOPAC_screen_w_protease, LOPAC1280 at 5 µM, replicate 2, read-out: Replicate_2", "value": 2.44, "unit": "%"}]}
{"smiles": "C=CCN1CC[C@]23CCCC[C@H]2[C@H]1Cc1ccc(O)cc13", "note": "[Levallorphan tartrate]", "values": [{"measurement": "inhibition at 5 µM", "setting": "[13]", "value": 4.19, "unit": "%"}, {"measurement": "inhibition at 5 µM", "setting": "[14]", "value": 5.56, "unit": "%"}, {"measurement": "inhibition at 5 µM", "setting": "[15]", "value": 2.81, "unit": "%"}]}
{"smiles": "CC[N+](C)(CC)CC(=O)Nc1c(C)cccc1C.[Cl-]", "note": "[Lidocaine N-methyl hydrochloride]", "values": [{"measurement": "mean (LOPAC_screen_w_protease)", "setting": "LOPAC1280 primary screen with protease, 5 µM compound, mean of the two replicates", "value": 2.035}, {"measurement": "Replicate_1 (LOPAC_screen_w_protease)", "setting": "[11]", "value": 4.235}, {"measurement": "Replicate_2 (LOPAC_screen_w_protease)", "setting": "[12]", "value": -0.1654}]}
{"smiles": "O=C1N(c2ccccc2)c2ccccc2C1(Cc1ccncc1)Cc1ccncc1", "note": "[Linopirdine]", "values": [{"measurement": "inhibition at 5 µM", "setting": "[13]", "value": 4.8, "unit": "%"}, {"measurement": "inhibition at 5 µM", "setting": "[14]", "value": 4.31, "unit": "%"}, {"measurement": "inhibition at 5 µM", "setting": "[15]", "value": 5.29, "unit": "%"}]}
{"smiles": "[Cl-].[Li+]", "note": "[Lithium Chloride]", "values": [{"measurement": "mean", "setting": "sheet LOPAC_screen_w_protease, LOPAC1280 primary screen at 5 µM, with protease, mean of the two replicates", "value": 0.7152}, {"measurement": "Replicate_1", "setting": "sheet LOPAC_screen_w_protease, LOPAC1280 primary screen at 5 µM, with protease, replicate 1", "value": 0.8231}, {"measurement": "Replicate_2", "setting": "sheet LOPAC_screen_w_protease, LOPAC1280 primary screen at 5 µM, with protease, replicate 2", "value": 0.6073}]}
{"smiles": "O=C(O)c1nn(Cc2ccc(Cl)cc2Cl)c2ccccc12", "note": "[Lonidamine]", "values": [{"measurement": "inhibition at 5 µM", "setting": "[7]", "value": 0.331, "unit": "%"}, {"measurement": "inhibition at 5 µM", "setting": "[8]", "value": 0.572, "unit": "%"}, {"measurement": "inhibition at 5 µM", "setting": "[9]", "value": 0.0889, "unit": "%"}]}
{"smiles": "CN(C)C(=O)C(CCN1CCC(O)(c2ccc(Cl)cc2)CC1)(c1ccccc1)c1ccccc1", "note": "[Loperamide hydrochloride]", "values": [{"measurement": "inhibition at 5 µM", "setting": "sheet LOPAC_screen_w_protease, primary screen with protease, mean of two replicates, read-out: mean", "value": 2.22, "unit": "%"}, {"measurement": "inhibition at 5 µM", "setting": "sheet LOPAC_screen_w_protease, primary screen with protease, replicate 1, read-out: Replicate_1", "value": 4.2, "unit": "%"}, {"measurement": "inhibition at 5 µM", "setting": "sheet LOPAC_screen_w_protease, primary screen with protease, replicate 2, read-out: Replicate_2", "value": 0.237, "unit": "%"}]}
{"smiles": "CCOC(=O)N1CCC(=C2c3ccc(Cl)cc3CCc3cccnc32)CC1", "note": "[Loratadine]", "values": [{"measurement": "inhibition at 5 µM", "setting": "[1]", "value": 0.729, "unit": "%"}, {"measurement": "inhibition at 5 µM", "setting": "[2]", "value": -0.189, "unit": "%"}, {"measurement": "inhibition at 5 µM", "setting": "[3]", "value": 1.65, "unit": "%"}]}
